We go through 1 compound from paper PMC7616177, “From structure to clinic: Design of a muscarinic M1 receptor agonist with the potential to treat Alzheimer’s disease” (Cell, 2021).

One data set concerns rats. The data set can be described thus: Modified Irwin Functional Observation Battery. The data set is classed as in vivo. Particulars: rat.
Data set [1] can be described thus: Modified Irwin Functional Observation Battery. The data set is classed as in vivo. As to conditions: plasma; rat, 100 mg/kg oral.
For a further data set, the system named is Wistar rats. Put plainly: Open field exploratory behaviour. The data set is classed as in vivo. As to conditions: rat. The protocol:
During the rat passive avoidance testing, open field exploratory behavior was measured on study days 4 and 5 (acclimatisation and handling), 6 (training) and 7 (recall). The open field apparatus consisted of black-painted Perspex 620 mm^2 with walls 300 mm high. Locomotor activity, measured as the distance traveled in a 300 s period, as well as incidences of rearing and grooming were recorded, using Ethovision XT tracking software (Noldus UK).

The target of data set [2] is T1, M1-receptor (Gq/11 protein-coupling) in cortical membranes (Mus musculus, UniProt P12657).
T1 construct: Wild-type or M1-KO mice ([Bradley et al., 2017]) (8-12 weeks) were humanely killed and cortical tissue was dissected on ice; from tissue; host or cells: mouse cortex membranes
T1 sequence (P12657 1-460): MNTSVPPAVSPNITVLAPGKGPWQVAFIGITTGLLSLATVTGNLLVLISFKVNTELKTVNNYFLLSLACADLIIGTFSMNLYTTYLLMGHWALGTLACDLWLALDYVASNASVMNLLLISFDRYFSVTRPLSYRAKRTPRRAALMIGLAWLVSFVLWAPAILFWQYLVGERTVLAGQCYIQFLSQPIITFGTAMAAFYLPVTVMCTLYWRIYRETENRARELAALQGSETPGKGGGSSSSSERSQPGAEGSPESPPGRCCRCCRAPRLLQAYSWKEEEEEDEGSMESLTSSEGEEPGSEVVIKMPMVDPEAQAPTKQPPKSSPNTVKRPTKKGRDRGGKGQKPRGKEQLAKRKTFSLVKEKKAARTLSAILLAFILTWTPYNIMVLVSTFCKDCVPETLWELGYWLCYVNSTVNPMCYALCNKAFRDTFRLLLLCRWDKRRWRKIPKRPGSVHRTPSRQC
Put plainly: [35S]-GTPγS binding / Gq/11 protein-coupling in mouse cortical membranes. The data set is classed as biochemical. The protocol:
Wild-type or M1-KO mice ([Bradley et al., 2017]) (8-12 weeks) were humanely killed and cortical tissue was dissected on ice. Tissue was suspended in ice-cold buffer A (containing 0.9% (w/v) NaCl, 10 mM HEPES, 0.2% (w/v) EDTA, pH 7.4) and homogenized (4 ×5s bursts) using a Polytron homogenizer. The suspension was centrifuged at 200 xg for 5 min at 4°C using an Eppendorf 5810R bench-top centrifuge. Supernatants were collected and re-homogenized as above. The suspension was subsequently centrifuged for 20 min at 40,000 xg at 4°C using a Beckman Coulter Avanti JXN-26 centrifuge with a JA-25.25 rotor. Supernatant was discarded, and the pellet was re-suspended in 10 mL ice-cold buffer B (10 mM HEPES, 10 mM EDTA, pH 7.4). The pellet was homogenized, GTP (1 mM final) was added and the suspension was incubated at 37° C for 15 min. The suspension was subsequently centrifuged for 20 min at 40,000 xg at 4°C and the pellet was re-suspended in 15 mL ice-cold buffer C (10 mM HEPES, 0.1 mM EDTA, pH 7.4) and re-homogenized as before. Suspension was centrifuged again for 20 min at 40,000 xg at 4°C. The final pellet was re-suspended in buffer C and protein concentration was estimated using a Bradford assay and this resuspended homogenate further diluted in buffer C to produce a concentration of 2 mg/mL. This preparation is the membrane preparation used in the [^35S]-GTPγS binding assay described below.
[^35S]-GTPγS binding and immunoprecipitation of Gα subunits was performed as previously described ([Bradley et al., 2017]). Specifically, wild-type or M1-KO membranes were diluted in assay buffer (in mM: HEPES, 10; NaCI, 100; MgCl2, 10; pH 7.4) containing a final concentration of 1 μM GDP. Membranes (75 μg in a total assay volume of […]) were added to [^35S]-GTPγS (1 μM final concentration) and agonists (CCh or CNO) and incubated at 30°C for 5 min. Reactions were terminated by the addition of 1 mL ice-cold assay buffer and immediate transfer to an ice bath. […] Recovered beads were then mixed with 1 mL FloScint-IV scintillation cocktail and counted by liquid scintillation spectrometry.
For orientation: GTPγS resists hydrolysis and so accumulates on activated G proteins.

Data set [3] is described as follows: Dog plasma and CSF exposure after subcutaneous dosing. The data set is classed as in vivo. As to conditions: sc; for concentration at 4 h: CSF, aged beagle, 4 h post-dose, read-out: Measured Ccsf concentration.
The subject of a further data set is locomotor activity. Put plainly: Locomotor activity alone or with amphetamine. Particulars: doses up to 100 mg/kg. The data set is classed as in vivo.

Like-named read-outs stand apart in the source and are kept apart here.

One may read the EC50 as the concentration at which the effect is half-maximal. Read a high EC50 as lower potency in that assay. On to `CCOC(=O)N1CCC[C@H](N2CCC(C(=O)NC3(C)CCC3)CC2)CC1` [HTL9936, ethyl (S)-4-(4-((1-methylcyclobutyl)carbamoyl)piperidin-1-yl)azepane-1-carboxylate], for which the “Cu,pl” value in the data set with rats (100 mg/kg oral) is given as 11,994 nM. The Seizure-like effects entry in the data set with rats (oral dosing up to 100 mg/kg) is reported as “complete absence of seizure-like effects”. Further, the Cmax is 6400 ng/mL in data set [1] and 58 ng/mL in data set [3] (plasma, aged beagle DNMP study, 0.3 mg/kg subcutaneous, read-out: Cmax plasma exposure at minimal effective dose). Moreover, the Open-field exploratory behavior entry with Wistar rats is on record as “no difference in effect”. Also, in data set [2], the EC50 was 2.5 µM. Further, the “Gq/11 protein-coupling Emax” value in data set [2] (cortical membranes, wild-type mice, n = 3) is reported as 76 % of the oxotremorine-M response. For the same compound, the “Gq/11 protein-coupling in M1-receptor KO membranes” value in data set [2] (membranes from M1-receptor KO animals) is given as “absent”. The concentration at 4 h in data set [3] (0.3 mg/kg s.c.) was found to be 13 nM; in data set [3] (1 mg/kg s.c.) it was 48 nM; in data set [3] (2 mg/kg s.c.) it was 128 nM. In addition, the “Adverse responses and locomotor activity” value in the data set with locomotor activity is given as “no adverse responses nor had any effect on locomotor activity”.
